Results taken from publication PMC9933483, “Tail-Approach-Based Design and Synthesis of Coumarin-Monoterpenes as Carbonic Anhydrase Inhibitors and Anticancer Agents” (ACS Omega, 2023).

Tests used:
HT-29 cell line = assay: Cell cytotoxicity, MTT assay; assay type: cell-based, human; settings: Homo sapiens, HT-29; MTT, 24 h
hCA IX = hCA IX (Homo sapiens, UniProt Q16790); assay: biochemical
MCF-7 cell line = assay: Cell cytotoxicity, MTT assay; assay type: cell-based, human
HEK293T cell line = assay: Cell cytotoxicity, MTT assay; assay type: cell-based; settings: Homo sapiens, HEK-293T, 24 h, healthy cell line
PC-3 cell line = assay: Cell cytotoxicity, MTT assay; assay type: cell-based; settings: Homo sapiens, 24 h

Row | SMILES | IC50 (HT-29 cell line) | Ki (hCA IX) | IC50 (MCF-7 cell line; Homo sapiens, MCF7, 24 h) | IC50 (HEK293T cell line) | IC50 (PC-3 cell line) | melting point | IC50 (MCF-7 cell line; 24 h)
1 | Cc1ccc(C(C)C)c(OCCCCCCCOc2ccc3ccc(=O)oc3c2)c1 [Compound 48, 7-((7-(2-Isopropyl-5-methylphenoxy)heptyl)oxy)-2H-chromen-2-one] | > 200 µM | 0.0368 µM |  |  |  |  | 
2 | Cc1ccc(C(C)C)cc1OCCCCCCCCCOc1ccc2ccc(=O)oc2c1 [Compound 57, 7-((9-(5-Isopropyl-2-methylphenoxy)nonyl)oxy)-2H-chromen-2-one] | > 200 µM |  |  |  |  |  | 
3 | CC1CCC(C(C)C)C(OCCCCCCOc2ccc3ccc(=O)oc3c2)C1 (stereo not shown) [Compound 71, 7-((6-((2-Isopropyl-5-methylcyclohexyl)oxy)hexyl)oxy)-2H-chromen-2-one] | 18.6 ± 3.39 µM |  | 30.7 ± 7.04 µM | 56.6 ± 10.5 µM | 36 ± 9.49 µM |  | 
4 | C=CCc1ccc(OCCCCCCCOc2ccc3ccc(=O)oc3c2)c(OC)c1 [Compound 64, 7-((7-(4-Allyl-2-methoxyphenoxy)heptyl)oxy)-2H-chromen-2-one] | > 80 µM |  |  |  |  | 62 to 63 °C | 
5 | CC1CCC(C(C)C)C(OCc2cn(CCCCCCCOc3ccc4ccc(=O)oc4c3)nn2)C1 (stereo not shown) [Compound 40, 7-((7-(4-(((2-Isopropyl-5-methylcyclohexyl)oxy)methyl)-1H-1,2,3-triazol-1-yl)heptyl)oxy)-2H-chromen-2-one] | 54.8 ± 19.1 µM |  |  |  |  |  | 
6 | CC1CCC(C(C)C)C(OCCOc2ccc3ccc(=O)oc3c2)C1 (stereo not shown) [Compound 68, 7-(2-((2-Isopropyl-5-methylcyclohexyl)oxy)ethoxy)-2H-chromen-2-one] | 40.7 ± 7.5 µM |  |  |  |  |  | 
7 | C=CCc1ccc(OCCCCOc2ccc3ccc(=O)oc3c2)c(OC)c1 [Compound 62, 7-(4-(4-Allyl-2-methoxyphenoxy)butoxy)-2H-chromen-2-one] | > 80 µM | 0.0313 µM | 11.3 ± 3.61 µM | 64.7 ± 20.1 µM | 45.5 ± 26.5 µM |  | 
8 | C=CCc1ccc(OCCCCCCCCCOc2ccc3ccc(=O)oc3c2)c(OC)c1 [Compound 65, 7-((9-(4-Allyl-2-methoxyphenoxy)nonyl)oxy)-2H-chromen-2-one] | 39.4 ± 7.1 µM |  |  |  |  | 56 to 57 °C | 
9 | Cc1ccc(C(C)C)cc1OCc1cn(CCCOc2ccc3ccc(=O)oc3c2)nn1 [Compound 21, 7-(3-(4-((5-Isopropyl-2-methylphenoxy)methyl)-1H-1,2,3-triazol-1-yl)propoxy)-2H-chromen-2-one] | 39.4 ± 15.8 µM |  |  |  |  |  | 
10 | Cc1ccc(C(C)C)cc1OCCCCCCCCCCOc1ccc2ccc(=O)oc2c1 [Compound 58, 7-((10-(5-Isopropyl-2-methylphenoxy)decyl)oxy)-2H-chromen-2-one] | > 200 µM |  |  |  |  | 50 to 51 °C | 
11 | COc1cccc2c1C(=O)c1c(O)c3c(c(O)c1C2=O)C[C@@](O)(C(=O)CO)C[C@@H]3O[C@H]1C[C@H](N)[C@H](O)[C@H](C)O1 [Dox, doxorubicin, reference compound] | 7.41 ± 1.9 µM |  | 0.64 ± 0.11 µM | 2.03 ± 0.12 µM | 4.48 ± 1.08 µM |  | 
12 | Cc1ccc(C(C)C)cc1OCCCOc1ccc2ccc(=O)oc2c1 [Compound 53, 7-(3-(5-Isopropyl-2-methylphenoxy)propoxy)-2H-chromen-2-one] | > 80 µM | 0.303 µM | 30.8 ± 9.23 µM | > 80 µM | > 200 µM |  | 
13 | Cc1ccc(C(C)C)cc1OCc1cn(CCCCOc2ccc3ccc(=O)oc3c2)nn1 [Compound 22, 7-(4-(4-((5-Isopropyl-2-methylphenoxy)methyl)-1H-1,2,3-triazol-1-yl)butoxy)-2H-chromen-2-one] | 37.4 ± 12.1 µM |  |  |  |  |  | 
14 | CC1CCC(C(C)C)C(OCCCOc2ccc3ccc(=O)oc3c2)C1 (stereo not shown) [Compound 69, 7-(3-((2-Isopropyl-5-methylcyclohexyl)oxy)propoxy)-2H-chromen-2-one] | 12.1 ± 1.94 µM | 0.0341 µM | 5.86 ± 1.22 µM | 50 ± 8.43 µM | 41.4 ± 14.9 µM |  | 
15 | C=CCc1ccc(OCCCCCCCCCCCCOc2ccc3ccc(=O)oc3c2)c(OC)c1 [Compound 67, 7-((12-(4-Allyl-2-methoxyphenoxy)dodecyl)oxy)-2H-chromen-2-one] | > 80 µM |  |  |  |  |  | 
16 | Cc1ccc(C(C)C)c(OCc2cn(CCCOc3ccc4ccc(=O)oc4c3)nn2)c1 [Compound 13, 7-(3-(4-((2-Isopropyl-5-methylphenoxy)methyl)-1H-1,2,3-triazol-1-yl)propoxy)-2H-chromen-2-one] | 48.5 ± 8.73 µM |  |  |  |  |  | 
17 | Cc1ccc(C(C)C)c(OCCCCCCCCCCOc2ccc3ccc(=O)oc3c2)c1 [Compound 50, 7-((10-(2-Isopropyl-5-methylphenoxy)decyl)oxy)-2H-chromen-2-one] | > 200 µM |  |  |  |  |  | 

Row | SMILES | IC50 (HT-29 cell line) | Ki (hCA IX) | IC50 (MCF-7 cell line; Homo sapiens, MCF7, 24 h) | IC50 (HEK293T cell line) | IC50 (PC-3 cell line) | melting point | IC50 (MCF-7 cell line; 24 h)
18 | CC1CCC(C(C)C)C(OCc2cn(CCCCCCCCCOc3ccc4ccc(=O)oc4c3)nn2)C1 (stereo not shown) [Compound 41, 7-((9-(4-(((2-Isopropyl-5-methylcyclohexyl)oxy)methyl)-1H-1,2,3-triazol-1-yl)nonyl)oxy)-2H-chromen-2-one] | 44.7 ± 15.1 µM | 0.204 µM |  |  |  |  | 
19 | Cc1ccc(C(C)C)c(OCc2cn(CCCCCCCOc3ccc4ccc(=O)oc4c3)nn2)c1 [Compound 16, 7-((7-(4-((2-Isopropyl-5-methylphenoxy)methyl)-1H-1,2,3-triazol-1-yl)heptyl)oxy)-2H-chromen-2-one] | 21.6 ± 8.31 µM |  | 73.1 ± 55.4 µM | 142 ± 49.6 µM | 167 ± 30.1 µM |  | 
20 | Cc1ccc(C(C)C)c(OCCCOc2ccc3ccc(=O)oc3c2)c1 [Compound 45, 7-(3-(2-Isopropyl-5-methylphenoxy)propoxy)-2H-chromen-2-one] | > 200 µM | 0.192 µM | > 200 µM | 43.3 ± 5.43 µM | > 80 µM |  | 
21 | Cc1ccc(C(C)C)cc1OCc1cn(CCOc2ccc3ccc(=O)oc3c2)nn1 [Compound 20, 7-(2-(4-((5-Isopropyl-2-methylphenoxy)methyl)-1H-1,2,3-triazol-1-yl)ethoxy)-2H-chromen-2-one] | 25.9 ± 7.94 µM |  |  |  |  |  | 
22 | Cc1ccc(C(C)C)c(OCc2cn(CCOc3ccc4ccc(=O)oc4c3)nn2)c1 [Compound 12, 7-(2-(4-((2-Isopropyl-5-methylphenoxy)methyl)-1H-1,2,3-triazol-1-yl)ethoxy)-2H-chromen-2-one] | 48.5 ± 9.01 µM |  | 45.7 ± 14.5 µM | 107 ± 19.5 µM | 50.2 ± 23.7 µM |  | 
23 | Cc1ccc(C(C)C)c(OCCCCCCCCCOc2ccc3ccc(=O)oc3c2)c1 [Compound 49, 7-((9-(2-Isopropyl-5-methylphenoxy)nonyl)oxy)-2H-chromen-2-one] | > 200 µM | 0.123 µM |  |  |  |  | 
24 | Cc1ccc(C(C)C)c(OCCCCCCCCCCCCOc2ccc3ccc(=O)oc3c2)c1 [Compound 51, 7-((12-(2-Isopropyl-5-methylphenoxy)dodecyl)oxy)-2H-chromen-2-one] | > 200 µM | 0.0383 µM | 19.6 ± 3.14 µM | 50.1 ± 15.7 µM | 62.8 ± 23.7 µM |  | 
25 | Cc1ccc(C(C)C)c(OCCCCOc2ccc3ccc(=O)oc3c2)c1 [Compound 46, 7-(4-(2-Isopropyl-5-methylphenoxy)butoxy)-2H-chromen-2-one] | > 80 µM | 0.0824 µM | > 200 µM | > 80 µM | > 80 µM |  | 
26 | C=CCc1ccc(OCc2cn(CCCCCCOc3ccc4ccc(=O)oc4c3)nn2)c(OC)c1 [Compound 31, 7-((6-(4-((4-Allyl-2-methoxyphenoxy)methyl)-1H-1,2,3-triazol-1-yl)hexyl)oxy)-2H-chromen-2-one] | 45.2 ± 13.1 µM |  | 16.8 ± 9.71 µM | 15.2 ± 1.06 µM | > 200 µM |  | 
27 | Cc1ccc(C(C)C)c(OCc2cn(CCCCCCCCCOc3ccc4ccc(=O)oc4c3)nn2)c1 [Compound 17, 7-((9-(4-((2-Isopropyl-5-methylphenoxy)methyl)-1H-1,2,3-triazol-1-yl)nonyl)oxy)-2H-chromen-2-one] | 28.5 ± 8.9 µM | 0.213 µM | > 200 µM | > 200 µM | 12.5 ± 4.4 µM |  | 
28 | CC1CCC(C(C)C)C(OCCCCOc2ccc3ccc(=O)oc3c2)C1 (stereo not shown) [Compound 70, 7-(4-((2-Isopropyl-5-methylcyclohexyl)oxy)butoxy)-2H-chromen-2-one] | 14.7 ± 2.81 µM | 0.142 µM | 7.53 µM | 63.5 ± 11.4 µM | 24.8 ± 5.35 µM |  | 4.53 ± 1.06 µM
29 | Cc1ccc(C(C)C)c(OCc2cn(CCCCCCOc3ccc4ccc(=O)oc4c3)nn2)c1 [Compound 15, 7-((6-(4-((2-Isopropyl-5-methylphenoxy)methyl)-1H-1,2,3-triazol-1-yl)hexyl)oxy)-2H-chromen-2-one] | 30.1 ± 10.2 µM |  | 143 ± 58.5 µM | 59.7 ± 12.3 µM | 48.4 ± 14.4 µM |  | 
30 | Cc1ccc(C(C)C)cc1OCCCCCCOc1ccc2ccc(=O)oc2c1 [Compound 55, 7-((6-(5-Isopropyl-2-methylphenoxy)hexyl)oxy)-2H-chromen-2-one] | 63.29 ± 0.57 µM | 0.0362 µM | 16.4 ± 2.91 µM | > 80 µM | 48.3 ± 14.1 µM |  | 
31 | Cc1ccc(C(C)C)c(OCCCCCCOc2ccc3ccc(=O)oc3c2)c1 [Compound 47, 7-((6-(2-Isopropyl-5-methylphenoxy)hexyl)oxy)-2H-chromen-2-one] | > 80 µM | 0.117 µM | 18.4 ± 2.63 µM | > 80 µM | 29.1 ± 6.02 µM |  | 
32 | Cc1ccc(C(C)C)cc1OCCCCCCCOc1ccc2ccc(=O)oc2c1 [Compound 56, 7-((7-(5-Isopropyl-2-methylphenoxy)heptyl)oxy)-2H-chromen-2-one] | > 80 µM |  | 8.26 ± 1.28 µM | > 80 µM | 24.4 ± 4.12 µM |  | 
33 | CC1CCC(C(C)C)C(OCc2cn(CCCCCCOc3ccc4ccc(=O)oc4c3)nn2)C1 (stereo not shown) [Compound 39, 7-((6-(4-(((2-Isopropyl-5-methylcyclohexyl)oxy)methyl)-1H-1,2,3-triazol-1-yl)hexyl)oxy)-2H-chromen-2-one] | 65.6 ± 24.2 µM |  |  |  |  |  | 
34 | CC1CCC(C(C)C)C(OCc2cn(CCCCCCCCCCOc3ccc4ccc(=O)oc4c3)nn2)C1 (stereo not shown) [Compound 42, 7-((10-(4-(((2-Isopropyl-5-methylcyclohexyl)oxy)methyl)-1H-1,2,3-triazol-1-yl)decyl)oxy)-2H-chromen-2-one] | 32.9 ± 8.54 µM | 0.0019 µM | > 200 µM | 83.2 ± 28.1 µM | 39.7 ± 17 µM |  | 
